Test results from patent publication US6951647B2, “T cell binding ligand peptides and method of inducing a cellular immune response” (Cel-Sci Corporation, priority 2001, dated 2005).
“And” between values parts separate entries of the source, which are not always exact repeats. Equal values may be shown once.

Legend:
modified HGP-30 [1] = experiment: Delayed Type Hypersensitivity (DTH) ear thickness response with antisera depletion of CD4 or CD8 cells; type: in vivo, Mice
Description: (§1) Mice in groups (5-10 animals per group as designated) are immunized with the LEAPS constructs (25 μg/dose) of SEQ ID NO's:37, 38 and 39, in 0.2 mL emulsified 1:1 with adjuvant (Seppic's ISA-51 or Corixa's microfluidized MPL S/E) on days 0 and 14. Mice are evaluated by Delayed Type of Hypersensitivity (DTH) by inoculation on day 26 with 20 μl of a solution of saline or mH (SEQ ID NO:6) (25 μg in saline) in the left or right ear respectively. The DTH response is determined by measurement of the ear thickness 48 hours later and expressed as increase in ear thickness (mm) of experimental ear compared to that of the control ear. Individual animal sera are collected for measurement of antibody on day 28, 42, 63 and 77. Sera from individual animals and group pools are evaluated for specific anti-mH antibody, for total antibody, IgG1, IgG2a and IgG3 antibody isotype and cross clade titer at selected time points as indicated.
(§2) Select immunoglobulin preparations were obtained from Dr. Stephen Hoffmann, Malaria Program, U.S. Navy. […] This allows one to determine some parts of the nature of various cellular (e.g., T-cell) involvement in the early stage of immune system response with the LEAPS peptide-constructs. It is recognized, however, that this is only a temporary event since new cells are continuously being developed from stem cells and the animals become resistant to the reagents.
(§3) The animals are pretreated with the antisera as indicated for 5 days before the initial immunization with peptide-construct having SEQ ID NO:37 or SEQ ID NO:39 on […]. No pretreatment is done before the booster immunization on day 14 or DTH on day 26-28. The mice are then inoculated with the test antigen or saline (control) on day 26 in the left and right ears, respectively, and the DTH response is measured on day 28. The difference between the values for the test and saline control ears is calculated for each group of five animals along with the standard error of the mean (sem) and the results are plotted (see FIG. 1). Also shown in FIG. 1 are values for the untreated animals and animals immunized on day 14 only.
The DTH (Delayed Type Hypersensitivity) data is statistically significant with a t-test of 0.05 for SEQ ID NO:39 and anti-CD8. The DTH for pretreatment of SEQ ID NO:37 immunized mice with anti-CD4 was just above the cutoff limit for statistical significance due to a weaker DTH response and small group size.

Peptide G [2] = experiment: Specificity analysis for the TCBL carrier, ELISA plates coated with Peptide G; type: in vivo, Mice; conditions: individual animal
B Clade = experiment: ELISA cross clade recognition by sera of immunized mice, B Clade; type: in vivo; conditions: for ELISA test antigen B Clade: day 42 test bleeding
Description: as §1
(§4) The mouse sera for the ELISA was used at a dilution of 1:200. Again, clearly, the construct provides higher signals indicative of higher levels of the antibodies that recognized other clades besides the parental one (Clade B) of mH.
(§5) A cross clade analysis for pools of day 42 test bleedings from the same groups as used in Table 3, were obtained and the results are shown in Table 4.

modified HGP-30 [3] = experiment: ELISA for antibody after antisera depletion of CD4 or CD8 cells (FIG. 2); type: in vivo, Mice; conditions: pretreatment with anti-CD4, day 28, p=0.002 (FIG. 2)
From the text: as §2, §3
This example is similar to Example 2 but using a more sensitive ELISA test for antibody type. […] This was not the case, however, with pretreatment using anti-CD8 or normal rat IgG. […]

E Clade [4] = experiment: ELISA cross clade recognition by sera of immunized mice, E Clade; type: in vivo; conditions: for ELISA test antigen E Clade: day 42 test bleeding, Group Average
Description: as §1, §4, §5

C Clade = experiment: ELISA cross clade recognition by sera of immunized mice, C Clade; type: in vivo; conditions: for ELISA test antigen C Clade: day 42 test bleeding
Description: as §1, §4, §5

Peptide G [5] = experiment: Specificity analysis for the TCBL carrier, ELISA plates coated with Peptide G; type: in vivo, Mice; conditions: for A 490 1:200 dilution on plates coated with Peptide G: Average
Description: as §1
A specificity analysis for the TCBL or KLH carrier for pools of day 42 test bleedings from the G-mH, G′-mH and mH/KLH, using either MPL S/E or ISA51 as adjuvant, was carried out (all sera assayed at a dilution of 1:200) and the results are shown in Table 5. […] This observation is especially significant for vaccines used on a repetitive basis, such as, either a vaccine that requires more frequent intervals between boosters for maintenance of cellular reactivity or as a therapeutic vaccine.

E Clade [6] = experiment: ELISA cross clade recognition by sera of immunized mice, E Clade; type: in vivo; conditions: day 42 test bleeding, individual mouse
D Clade = experiment: ELISA cross clade recognition by sera of immunized mice, D Clade; type: in vivo; conditions: day 42 test bleeding, individual mouse
[7] = Day 14 Injection Only (immunized with construct on day 14 only), average of group of 5 mice
[8] = Treatment Anti CD4, daily for 5 days before immunization, average of group (5 mice)
[9] = Treatment Anti CD8, daily for 5 days before immunization, average of group of 5 mice
[10] = Treatment None, average of group (5 mice), ISA 51 adjuvant
[11] = Treatment Normal rat IgG, daily for 5 days before immunization, average of group (5 mice)
[12] = day 63 test bleeding, sera 1:200, individual mouse

**Q.** With “DGQ EEK AGV VST GLI GGG ATL YSV HQR IDV KDT KEA LEK IEE EQN KS (DGQEEKAGVVSTGLIGGGYLSGANLNL) [SEQ ID NO: 57, Peptide G′ linked by GGG spacer to modified HGP-30 (mH)]” as the substance, how does the “Left Ear thickness, inoculated day 26 with HGP-30, measured after 48 hours” value (“Left Ear thickness” below) (modified HGP-30 [1]; [7]) read?
**A.** 0.234 mm

**Q.** What about the “Right Ear thickness, inoculated day 26 with saline, measured after 48 hours” value (“Right Ear thickness” below) (modified HGP-30 [1]; [7]) of the same substance?
**A.** 0.222 mm

**Q.** What about the “DTH % increase (L-R)/R” value (modified HGP-30 [1]; Day 14 Injection Only, average of group of 5 mice) of the same substance?
**A.** 5.10%

**Q.** What about the “Left Ear thickness” value (modified HGP-30 [1]; [8]) of the same substance?
**A.** 0.252 mm

**Q.** And the “Right Ear thickness” value (modified HGP-30 [1]; [8])?
**A.** 0.237 mm

**Q.** What about the “DTH % increase (L-R)/R” value (modified HGP-30 [1]; Treatment Anti CD4, average of group (5 mice)) of the same substance?
**A.** 6.10%

**Q.** What about the “Left Ear thickness” value (modified HGP-30 [1]; [9]) of the same substance?
**A.** 0.290 mm

**Q.** What about the “Right Ear thickness” value (modified HGP-30 [1]; [9]) of the same substance?
**A.** 0.232 mm

**Q.** What about the “DTH % increase (L-R)/R” value (modified HGP-30 [1]; Treatment Anti CD8, average of group of 5 mice) of the same substance?
**A.** 25.00%

**Q.** What about the “DTH % increase (L-R)/R” value (modified HGP-30 [1]; Treatment None, average of group (5 mice)) of the same substance?
**A.** 22.10%

**Q.** And the “Left Ear thickness” value (modified HGP-30 [1]; [10])?
**A.** 0.274 mm

**Q.** What about the “Right Ear thickness” value (modified HGP-30 [1]; [10]) of the same substance?
**A.** 0.224 mm

**Q.** And the “Left Ear thickness” value (modified HGP-30 [1]; [11])?
**A.** 0.278 mm

**Q.** What about the “Right Ear thickness” value (modified HGP-30 [1]; [11]) of the same substance?
**A.** 0.232 mm

**Q.** And the “DTH % increase (L-R)/R” value (modified HGP-30 [1]; Treatment Normal rat IgG, average of group (5 mice))?
**A.** 19.90%

**Q.** And the “Type of cells required for a DTH response” value (modified HGP-30 [1]; cell specific antisera as depletion reagent for the primary immunization (FIG. 1))?
**A.** requires the presence and presumably activation of CD4+ but not CD8+ cells

**Q.** What about the “A 490 1:200 dilution on plates coated with Peptide G” value (“A 490 1:200 dilution” for short) (Peptide G [2]; day 42, first set of groups (animals 4637-4648, 4674-4678)) of the same substance?
**A.** 0.083 A 490 and 0.054 A 490 and 0.097 A 490 and 0.038 A 490 and 0.087 A 490 and 0.121 A 490

**Q.** What about the “A 490 1:200 dilution” value (Peptide G [2]; day 42, second set of groups (animals 4662-4673, 4679-4683)) of the same substance?
**A.** 0.091 A 490 and 0.024 A 490 and 0.006 A 490 and 0.015 A 490 and 0.126 A 490 and 0.113 A 490

**Q.** And the “ELISA test antigen B Clade” value (B Clade; group (A), Group Average)?
**A.** 0.346

**Q.** What about the “ELISA test antigen B Clade” value (B Clade; group (A), individual mouse) of the same substance?
**A.** 0.271 and 0.000 and 0.036 and 0.507 and 0.187 and 1.074

**Q.** What about the “ELISA test antigen B Clade” value (B Clade; group (B), Group Average) of the same substance?
**A.** 1.410

**Q.** And the “ELISA test antigen B Clade” value (B Clade; group (B), individual mouse)?
**A.** 2.348 and 0.496 and 1.799 and 1.228 and 2.244 and 0.349

**Q.** And the “ELISA signal on B Clade” value (B Clade; [12])?
**A.** 1.667 and 0.160 and 0.099 and 0.236 and 1.547 and 0.470 and 1.138 and 0.994 and 0.000 and 0.505

**Q.** And the “Antibody detection by ELISA after antisera depletion” value (modified HGP-30 [3])?
**A.** completely eliminated any antibodies from being detected

**Q.** And the “ELISA test antigen E Clade” value (E Clade [4]; group (A))?
**A.** 0.035

**Q.** And the “ELISA test antigen E Clade” value (E Clade [4]; group (B))?
**A.** 0.094

**Q.** And the “ELISA signal on E Clade” value (E Clade [4]; [12])?
**A.** 0.933 and 0.030 and 0.113 and 0.041 and 0.000 (2×) and 0.029 and 0.068 and 0.006 and 0.271

**Q.** And the “ELISA test antigen C Clade” value (C Clade; group (A), Group Average)?
**A.** 0.712

**Q.** What about the “ELISA test antigen C Clade” value (C Clade; group (A), individual mouse) of the same substance?
**A.** 0.616 and 0.000 and 0.518 and 0.920 and 0.767 and 1.454

**Q.** And the “ELISA test antigen C Clade” value (C Clade; group (B), Group Average)?
**A.** 1.559

**Q.** What about the “ELISA test antigen C Clade” value (C Clade; group (B), individual mouse) of the same substance?
**A.** 2.575 and 0.837 and 1.711 and 2.254 and 0.911 and 1.070

**Q.** And the “ELISA signal on C Clade” value (C Clade; [12])?
**A.** 1.454 and 0.127 and 0.427 and 0.073 and 1.592 and 0.651 and 1.365 and 1.139 and 0.008 and 1.191

**Q.** What about the “A 490 1:200 dilution” value (Peptide G [5]; day 42, first set of groups) of the same substance?
**A.** 0.080 A 490

**Q.** And the “A 490 1:200 dilution” value (Peptide G [5]; day 42, second set of groups)?
**A.** 0.062 A 490

**Q.** What about the “Reactivity toward the delivery vehicle TCBL” value (Peptide G [5]; day 42 sera at 1:200, Table 5, in words) of the same substance?
**A.** minimal reactivity

**Q.** And the “ELISA test antigen E Clade” value (E Clade [6]; group (A))?
**A.** 0.092 and 0.000 (3×) and 0.018 and 0.101

**Q.** What about the “ELISA test antigen E Clade” value (E Clade [6]; group (B)) of the same substance?
**A.** 0.000 (2×) and 0.054 and 0.358 and 0.113 and 0.037

**Q.** And the “ELISA test antigen D Clade” value (D Clade; group (A))?
**A.** 0.052 and 0.000 (2×) and 0.010 and 0.003 and 0.114

**Q.** And the “ELISA test antigen D Clade” value (D Clade; group (B))?
**A.** 0.087 and 0.095 and 0.185 and 1.799 and 1.727 and 0.637
